Experimental findings from the NIST ThermoML archive (doi:10.1021/je900614f) are described below.

The conditions of the series: Crystal; visual observation.

± gives the expanded uncertainty stated by the source.

Consider `CCOc1ccc(NC(C)=O)cc1` [N-(4-ethoxyphenyl)ethanamide], for which the Triple point temperature turned out to be 407 ± 1 K.
